Experimental data published in paper PMC11643494, “Structure–Activity Relationship Studies in a Series of 2-Aryloxy-N-(pyrimidin-5-yl)acetamide Inhibitors of SLACK Potassium Channels” (Molecules, 2024).

How the values were obtained:
NaV1.7 = biological target: T1, NaV1.7 (Homo sapiens, UniProt Q15858); assay: Tl+-flux assay in HEK-293 cells, NaV1.7; format: cell-based; conditions: HEK293; 10 µM test compound; relative to control TC-N 1752; read-out: Percent Inhibition ± SEM, NaV1.7
T1 construct: expressed in transfected cells; host or cells: HEK293
T1 sequence (Q15858 whole entry): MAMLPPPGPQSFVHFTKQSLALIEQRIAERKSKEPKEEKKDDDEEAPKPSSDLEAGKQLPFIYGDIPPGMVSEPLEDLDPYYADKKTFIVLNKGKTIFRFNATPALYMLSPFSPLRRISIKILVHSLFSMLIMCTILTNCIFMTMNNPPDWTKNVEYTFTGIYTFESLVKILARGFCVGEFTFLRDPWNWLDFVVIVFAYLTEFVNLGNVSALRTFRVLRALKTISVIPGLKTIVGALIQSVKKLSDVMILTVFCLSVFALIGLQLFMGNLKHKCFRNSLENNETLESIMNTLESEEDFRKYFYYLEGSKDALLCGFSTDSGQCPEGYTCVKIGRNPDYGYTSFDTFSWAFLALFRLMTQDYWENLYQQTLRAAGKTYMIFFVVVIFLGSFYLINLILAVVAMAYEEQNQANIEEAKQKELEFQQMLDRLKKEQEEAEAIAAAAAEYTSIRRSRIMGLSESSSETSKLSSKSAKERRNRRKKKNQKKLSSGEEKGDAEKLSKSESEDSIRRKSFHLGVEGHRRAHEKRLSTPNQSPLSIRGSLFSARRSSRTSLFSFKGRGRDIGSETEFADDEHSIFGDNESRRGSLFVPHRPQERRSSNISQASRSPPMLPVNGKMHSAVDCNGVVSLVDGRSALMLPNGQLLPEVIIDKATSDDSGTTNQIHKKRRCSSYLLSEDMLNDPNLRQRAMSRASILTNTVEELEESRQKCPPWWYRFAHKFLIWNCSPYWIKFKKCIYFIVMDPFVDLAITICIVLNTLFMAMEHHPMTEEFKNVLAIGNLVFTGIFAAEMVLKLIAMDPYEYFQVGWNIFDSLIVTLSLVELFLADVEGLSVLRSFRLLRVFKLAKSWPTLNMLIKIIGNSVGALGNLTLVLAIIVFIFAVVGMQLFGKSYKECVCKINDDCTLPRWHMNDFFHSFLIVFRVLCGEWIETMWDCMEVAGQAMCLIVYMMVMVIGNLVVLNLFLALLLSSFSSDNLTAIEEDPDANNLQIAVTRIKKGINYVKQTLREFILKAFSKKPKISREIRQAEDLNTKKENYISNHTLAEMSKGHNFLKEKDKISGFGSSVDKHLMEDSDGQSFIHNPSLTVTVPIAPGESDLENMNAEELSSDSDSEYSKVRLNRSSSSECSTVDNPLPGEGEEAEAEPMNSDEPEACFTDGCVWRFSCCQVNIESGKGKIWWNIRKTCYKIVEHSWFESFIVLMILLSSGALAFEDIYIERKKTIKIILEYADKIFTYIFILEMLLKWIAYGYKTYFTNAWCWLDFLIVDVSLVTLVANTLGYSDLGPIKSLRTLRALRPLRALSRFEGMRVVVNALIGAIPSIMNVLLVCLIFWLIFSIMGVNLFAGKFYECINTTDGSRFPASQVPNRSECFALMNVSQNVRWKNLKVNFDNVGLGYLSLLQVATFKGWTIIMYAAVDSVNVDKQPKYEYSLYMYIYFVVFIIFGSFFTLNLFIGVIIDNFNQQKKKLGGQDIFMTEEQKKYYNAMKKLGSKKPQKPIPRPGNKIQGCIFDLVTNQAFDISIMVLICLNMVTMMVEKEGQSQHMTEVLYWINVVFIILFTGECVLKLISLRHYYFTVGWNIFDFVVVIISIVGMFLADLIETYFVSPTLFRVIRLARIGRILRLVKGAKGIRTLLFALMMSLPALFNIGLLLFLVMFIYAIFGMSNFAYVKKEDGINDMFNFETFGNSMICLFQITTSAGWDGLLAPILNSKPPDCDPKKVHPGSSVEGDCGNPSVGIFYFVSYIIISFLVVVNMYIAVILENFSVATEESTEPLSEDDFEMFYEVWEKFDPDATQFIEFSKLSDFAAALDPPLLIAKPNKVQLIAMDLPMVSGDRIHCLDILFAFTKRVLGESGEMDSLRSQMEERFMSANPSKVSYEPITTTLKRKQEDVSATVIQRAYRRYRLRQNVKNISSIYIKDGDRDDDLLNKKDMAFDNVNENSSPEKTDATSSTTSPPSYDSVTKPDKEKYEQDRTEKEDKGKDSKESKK
Excerpt: (§1) Having executed our plan to prepare analogs across the identified regions of the chemotype (Figure 2), we identified two analogs for further profiling and evaluation. […] Desiring to add a second compound with some measure of structural differences, we also chose another submicromolar SLACK inhibitor 66 (VU0936154). Whereas 40 contains an ether linker and a halogenated phenyl group in the eastern region, […] contains an N-methyl linker and a phenyl group with a more polar cyano substituent. We first screened these analogs at 10 µM versus our in-house panel of ion channel targets using Tl^+-flux assays in HEK-293 cells expressing the human target of interest. […] Included in this set are Slo family members SLICK and two isoforms of Maxi-K, as well as several different K^+, Na^+, and Ca^2+ channels (Table 6). […] Of note was the excellent selectivity versus the broader panel of targets for both compounds, including versus the hERG channel.
(§2) Stably transfected monoclonal HEK293 cell lines expressing SLICK, Maxi-K α1/β3, Maxi-K α1/β4, CaV3.2, GIRK 1/2, KV2.1, KV7.2, NaV1.7, and TASK-1 were generated as previously described. […]
(§3) The Tl^+ flux assays were conducted as previously described, with modifications optimized for individual cell lines as described below. […] Cell plates were then loaded onto a Panoptic kinetic imaging plate reader (WaveFront Biosciences, Franklin, TN, USA). […]

Maxi-K α1/β4 = biological target: T2, Maxi-K α1/β4 (Homo sapiens, UniProt Q12791); assay: Tl+-flux assay in HEK-293 cells, Maxi-K α1/β4; format: cell-based; conditions: HEK293; 10 µM test compound; relative to control paxilline; read-out: Percent Inhibition ± SEM, Maxi-K α1/β4
T2 construct: expressed in transfected cells; host or cells: HEK293
T2 sequence (Q12791 whole entry): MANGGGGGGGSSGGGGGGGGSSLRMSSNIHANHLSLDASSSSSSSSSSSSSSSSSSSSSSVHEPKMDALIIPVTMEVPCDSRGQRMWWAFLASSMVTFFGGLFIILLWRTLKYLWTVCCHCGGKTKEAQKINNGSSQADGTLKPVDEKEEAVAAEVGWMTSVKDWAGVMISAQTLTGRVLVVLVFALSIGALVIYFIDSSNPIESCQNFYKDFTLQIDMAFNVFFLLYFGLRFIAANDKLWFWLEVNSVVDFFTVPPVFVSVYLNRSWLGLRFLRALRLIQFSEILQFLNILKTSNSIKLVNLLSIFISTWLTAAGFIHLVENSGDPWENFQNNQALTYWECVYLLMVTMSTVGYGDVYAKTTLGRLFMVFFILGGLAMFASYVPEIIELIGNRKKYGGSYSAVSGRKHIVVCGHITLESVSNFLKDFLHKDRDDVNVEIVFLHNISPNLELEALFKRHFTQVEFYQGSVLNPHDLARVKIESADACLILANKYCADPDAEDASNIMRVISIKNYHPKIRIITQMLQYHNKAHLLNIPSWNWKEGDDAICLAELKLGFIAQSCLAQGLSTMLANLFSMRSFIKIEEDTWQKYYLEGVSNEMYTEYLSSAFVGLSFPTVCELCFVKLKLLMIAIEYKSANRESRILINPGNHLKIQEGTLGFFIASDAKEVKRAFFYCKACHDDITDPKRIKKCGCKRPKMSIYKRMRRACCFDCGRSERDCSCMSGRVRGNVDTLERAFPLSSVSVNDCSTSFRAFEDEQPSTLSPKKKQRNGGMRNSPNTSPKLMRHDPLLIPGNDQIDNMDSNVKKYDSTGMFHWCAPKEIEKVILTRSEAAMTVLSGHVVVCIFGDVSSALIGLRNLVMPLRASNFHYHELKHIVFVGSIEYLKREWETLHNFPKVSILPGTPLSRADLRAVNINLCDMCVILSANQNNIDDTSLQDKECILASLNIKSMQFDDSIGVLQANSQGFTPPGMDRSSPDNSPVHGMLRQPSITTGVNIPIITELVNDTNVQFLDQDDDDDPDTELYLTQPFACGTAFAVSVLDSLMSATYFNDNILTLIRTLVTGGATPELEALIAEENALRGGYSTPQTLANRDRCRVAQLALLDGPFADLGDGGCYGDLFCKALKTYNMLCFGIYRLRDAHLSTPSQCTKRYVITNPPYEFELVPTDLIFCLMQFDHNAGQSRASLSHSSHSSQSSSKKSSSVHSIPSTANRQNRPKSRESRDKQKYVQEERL
T2 sequence (Q86W47 whole entry partner): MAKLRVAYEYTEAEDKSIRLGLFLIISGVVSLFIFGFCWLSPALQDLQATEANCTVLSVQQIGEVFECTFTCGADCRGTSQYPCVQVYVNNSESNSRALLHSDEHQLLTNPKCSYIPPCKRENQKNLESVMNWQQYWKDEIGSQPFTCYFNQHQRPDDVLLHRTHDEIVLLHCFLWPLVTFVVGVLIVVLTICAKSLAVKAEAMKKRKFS
Excerpt: as §1, §2, §3

| Structure (SMILES) | inhibition at 10 µM (NaV1.7) [%] | inhibition at 10 µM (Maxi-K α1/β4) [%] |
| --- | --- | --- |
| CN(c1ccc(C#N)cc1)c1ncc(NC(=O)C(C)(C)Oc2ccc(Cl)cc2)cn1 [Analog 66] | 17 ± 1.8 | 22 ± 2.5 |
| CC(C)(Oc1ccc(Cl)cc1)C(=O)Nc1cnc(Oc2c(F)cccc2F)nc1 [Analog 40] | 7.5 ± 1.7 | 10 ± 7.4 |
